Test results from patent US4940711A, “Antihypertensive N-piperazinylalkanoylanilides” (Recordati, S.A., Chemical and Pharmaceutical Company, priority 1983, dated 1990).
Structures can show the parent of a compound that is named as a salt.

Experiments:
[1] = LD50 in the mouse per os (acute toxicity); details: in vivo, po, tested as hydrochloride salt except AC 2, 4 and 9 (free bases)
Method: The LD50 of the compounds according to the invention was determined in the mouse per os following the method described by C. S. Weil (Biometrics,8, 249, 1952).
In the following Table I, the numbers under AC (active compound) indicate the compounds described in the corresponding Examples (thus "1" indicates the compound prepared in Example 1).
(§1) ^a all compounds were tested as the hydrochloride salt, except for AC
(§2) 2, 4 and 9 (tested as free bases)

[2] = system: spontaneously hypertensive rats; assay: Antihypertensive activity (systolic blood pressure, indirect tail-cuff method) in conscious spontaneously hypertensive rats; assay type: in vivo; details: Rattus norvegicus, po; os, conscious SHR, 1, 3, 5 and 7 hours after administration; from linear regression of dose-response curve; hydrochloride salt except AC 2, 4 and 9 (free bases); read-out: ED25 (drug dose producing a 25% decrease in systolic blood pressure)
Method: Antihypertensive activity was evaluated in male spontaneously hypertensive rats (SHR, Wister-Kyoto strain, 15-25 weeks old). The determination of blood pressure was performed by the indirect method (M. Gerald et al, Arzneim.-Forsch., 18, 1825, 1968). The animals were prewarmed in a heating chamber at a temperature from 35° to 37° C. for a period of 15 minutes before administering the compounds. The compounds tested by the oral route were dissolved or suspended in a 0.5% methylcellulose solution. Controls were given only the vehicle. Systolic blood pressure and heart rate were measured 1, 3, 5 and 7 hours after drug administration by means of a tail-cuff and the pulse pick-up method using a recorder.
In the Table I, the antihypertensive activity was expressed as ED25, which is the drug dose producing a 25% decrease in systolic blood pressure in conscious spontaneously hypertensive rats. The ED25 was calculated from the linear regression of the dose-response curve.
as §1, §2

Compound | LD50 [1] [mg/kg] | ED25 [2] [mg/kg]
COc1ccccc1N1CCN(CCC(=O)Nc2ccc(S(=O)(=O)NC(C)=O)cc2)CC1 [Example 11, 4-Acetylsulphamoyl-β-[4-(2-methoxyphenyl)-1-piperazinyl]-propionylanilide] | > 3000 | 100
COc1ccccc1N1CCN(CCC(=O)Nc2ccc(S(C)(=O)=O)cc2)CC1 [Example 2, 4-Methylsulphonyl-β-[4-(2-methoxyphenyl)-1-piperazinyl]-propionylanilide] | > 3000 | 7.5
COc1ccccc1N1CCN(CCC(=O)Nc2ccc(S(=O)(=O)N(C)C)cc2)CC1 [Example 21, 4-(Dimethylsulphamoyl)-β-[4-(2-methoxyphenyl)-1-piperazinyl]-propionylanilide] | > 3000 | 60
COc1ccccc1N1CCN(CCC(=O)Nc2cccc(S(N)(=O)=O)c2)CC1 [Example 13, 3-Sulphamoyl-β-[4-(2-methoxyphenyl)-1-piperazinyl]-propionylanilide hydrate] | > 3000 | 100
COc1ccccc1N1CCN(CCC(=O)Nc2cc(OC)c(OC)c(OC)c2)CC1 [Example 20, 3,4,5-Trimethoxy-β-[4-(2-methoxyphenyl)-1-piperazinyl]-propionylanilide hydrochloride] | 730 | 60
COc1cccc(NC(=O)CCN2CCN(c3ccccc3OC)CC2)c1 [Example 6d, 3-methoxy-β-[4-(2-methoxyphenyl)-1-(piperazinyl]-propionylanilide hydrochloride] | 649 | 69
COc1ccccc1N1CCN(C(C)CC(=O)Nc2ccc(S(N)(=O)=O)cc2)CC1 (stereo not drawn) [Example 10, 4-Sulphamoyl-β-[4-(2-methoxyphenyl)-1-piperazinyl]-butyrylanilide] | > 3000 | 8.7
COc1ccccc1N1CCN(CC(=O)Nc2ccc(N)cc2)CC1 [Example 8a] | 1000 | 70.2
COc1ccccc1N1CCN(CCC(=O)Nc2ccc(C#N)cc2)CC1 [Example 6f, 4-cyano-β-[4-(2-methoxyphenyl)-1-piperazinyl]-propionylanilide] | 320 | 17.2
COc1ccc(NC(=O)CCN2CCN(c3ccccc3OC)CC2)cc1 [Example 6c, 4-methoxy-β-[4-(2-methoxyphenyl)-1-piperazinyl]-propionylanilide] | > 3000 | 10
COc1ccccc1N1CCN(CCC(=O)Nc2ccc(NC(C)=O)cc2)CC1 [Example 12, 4-Acetylamino-β-[4-(2-methoxyphenyl)-1-piperazinyl]-propionylanilide] | > 3000 | 100
COc1ccccc1N1CCN(CCC(=O)Nc2ccc([N+](=O)[O-])cc2)CC1 [Example 7, 4-Nitro-β-[4-(2-methoxyphenyl)-1-piperazinyl]-propionylanilide] | 2100 | 50.5
COc1ccccc1N1CCN(CCC(=O)Nc2ccc(S(N)(=O)=O)cc2)CC1 [Example 4, 4-Sulphamoyl-β-[4-(2-methoxyphenyl)-1-piperazinyl]-propionylanilide] | > 3000 | 8.1
COc1ccccc1N1CCN(CCC(=O)Nc2cccc(C(F)(F)F)c2)CC1 [Example 6b, 3-trifluoromethyl-β-[4-(2-methoxyphenyl)-1-piperazinyl]-propionylanilide hydrochloride] | 1600 | 48.8
COc1ccccc1N1CCN(CCC(=O)Nc2ccc(C(C)=O)cc2)CC1 [Example 6a, 4-acetyl-β-[4-(2-methoxyphenyl)-1-piperazinyl]-propionylanilide] | 2200 | 58.5
COc1ccccc1N1CCN(CCC(=O)Nc2ccc(C(N)=O)cc2)CC1 [Example 5, 4-Carbamoyl-β-[4-(2-methoxyphenyl)-1-piperazinyl]-propionylanilide] | > 3000 | 54.5
COc1ccccc1N1CCN(CCC(=O)Nc2ccc(C(C)O)cc2)CC1 (stereo not drawn) [Example 9, 4-(1Hydroxyethyl)-β-[4-(2-methoxyphenyl)-1-piperazinyl]-propionylanilide] | 537 | 69
COc1ccccc1N1CCN(CCC(=O)Nc2ccc3c(c2)OCO3)CC1 [Example 19, 3,4-Methylenedioxy-β-[4-(2-methoxyphenyl)-1-piperazinyl]-propionylanilide] | 340 | 100
COc1ccccc1N1CCN(CCC(=O)Nc2cccc(Cl)c2)CC1 [Example 14, 3-Chloro-β-[4-(2-methoxyphenyl)-1-piperazinyl]-propinylanilide] | > 3000 | 100
